Where “and” joins values, the source holds several entries; their conditions need not be identical. Identical values can stand only once.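 Exposure lasted 48 hours, with cells grown in 96-well plates and compounds tested at five concentrations. At the GI50, growth is halved. Definition used: TGI = concentration required for complete inhibition of growth.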
Columns and labels:
Assay in all cases: NCI anticancer screen, dose series, 48 h
SF-539 CNS = system: SF-539 CNS
SN12C renal = system: SN12C renal
SK-MEL-28 melanoma = system: SK-MEL-28 melanoma
HCC-2998 colon = system: HCC-2998 colon
NCI-H460 lung = system: NCI-H460 lung
MALME-3M melanoma = system: MALME-3M melanoma
ACHN renal = system: ACHN renal
HT29 colon = system: HT29 colon
SR leukemia = system: SR leukemia
DU-145 prostate = system: DU-145 prostate
TK-10 renal = system: TK-10 renal
SNB-19 CNS = system: SNB-19 CNS
T-47D breast = system: T-47D breast
IGROV1 ovarian = system: IGROV1 ovarian
RXF 393 renal = system: RXF 393 renal
LOX IMVI melanoma = system: LOX IMVI melanoma
OVCAR-8 ovarian = system: OVCAR-8 ovarian
OVCAR-4 ovarian = system: OVCAR-4 ovarian
SW-620 colon = system: SW-620 colon
A498 renal = system: A498 renal
NCI-H23 lung = system: NCI-H23 lung
SF-268 CNS = system: SF-268 CNS
HOP-62 NSCLC = system: HOP-62 NSCLC
SNB-75 CNS = system: SNB-75 CNS
U251 CNS = system: U251 CNS
COLO 205 colon = system: COLO 205 colon
NCI-H522 lung = system: NCI-H522 lung
UACC-257 melanoma = system: UACC-257 melanoma
SK-MEL-2 melanoma = system: SK-MEL-2 melanoma
SF-295 CNS = system: SF-295 CNS
M14 melanoma = system: M14 melanoma
OVCAR-5 ovarian = system: OVCAR-5 ovarian
HL-60(TB) leukemia = system: HL-60(TB) leukemia
EKVX NSCLC = system: EKVX NSCLC
MOLT-4 leukemia = system: MOLT-4 leukemia
UO-31 renal = system: UO-31 renal
SK-MEL-5 melanoma = system: SK-MEL-5 melanoma
UACC-62 melanoma = system: UACC-62 melanoma
OVCAR-3 ovarian = system: OVCAR-3 ovarian
NCI-H226 lung = system: NCI-H226 lung
HCT-15 colon = system: HCT-15 colon
HS 578T breast = system: HS 578T breast
KM12 colon = system: KM12 colon
K-562 leukemia = system: K-562 leukemia
MDA-MB-435 = system: MDA-MB-435
A549 NSCLC = system: A549 NSCLC
MCF7 breast = system: MCF7 breast
PC-3 prostate = system: PC-3 prostate
SK-OV-3 ovarian = system: SK-OV-3 ovarian
CAKI-1 renal = system: CAKI-1 renal
MDA-MB-468 breast = system: MDA-MB-468 breast
MDA-MB-231 breast = system: MDA-MB-231 breast

O=c1oc2ccc(-c3ccc(F)cc3F)cc2c(=O)n1-c1ccc(Cl)c(C(F)(F)F)c1
GI50 (SF-539 CNS): 3.9 µM
TGI (SF-539 CNS): 14.7 µM
GI50 (SN12C renal): 2890 nM
TGI (SN12C renal): 9.46 µM
GI50 (SK-MEL-28 melanoma): 4.3 µM
TGI (SK-MEL-28 melanoma): 15.9 µM
GI50 (HCC-2998 colon): 3.58 µM
TGI (HCC-2998 colon): 12.8 µM
GI50 (NCI-H460 lung): 3.27 µM
TGI (NCI-H460 lung): 11.2 µM
GI50 (MALME-3M melanoma): 2620 nM
TGI (MALME-3M melanoma): 7.28 µM
GI50 (ACHN renal): 3.24 µM
TGI (ACHN renal): 12.3 µM
GI50 (HT29 colon): 16.7 µM
TGI (HT29 colon): 31.4 µM
GI50 (SR leukemia): 1790 nM
TGI (SR leukemia): 5.54 µM
GI50 (DU-145 prostate): 4.03 µM
TGI (DU-145 prostate): 14.3 µM
GI50 (TK-10 renal): 3.98 µM
TGI (TK-10 renal): 11.7 µM
GI50 (SNB-19 CNS): 3.28 µM
TGI (SNB-19 CNS): 13.4 µM
GI50 (T-47D breast): 2420 nM
TGI (T-47D breast): 6.76 µM
GI50 (IGROV1 ovarian): 4.42 µM
TGI (IGROV1 ovarian): 15.8 µM
GI50 (RXF 393 renal): 2210 nM
TGI (RXF 393 renal): 6.51 µM
GI50 (LOX IMVI melanoma): 3.9 µM
TGI (LOX IMVI melanoma): 13.9 µM
GI50 (OVCAR-8 ovarian): 4.38 µM
TGI (OVCAR-8 ovarian): 17.9 µM
GI50 (OVCAR-4 ovarian): 4.19 µM
TGI (OVCAR-4 ovarian): 16.7 µM
GI50 (SW-620 colon): 3.93 µM
TGI (SW-620 colon): 14.9 µM
GI50 (A498 renal): 2950 nM
TGI (A498 renal): 8.94 µM
GI50 (NCI-H23 lung): 2470 nM
TGI (NCI-H23 lung): 8.59 µM
GI50 (SF-268 CNS): 3.39 µM
TGI (SF-268 CNS): 11.9 µM
GI50 (HOP-62 NSCLC): 4.18 µM
TGI (HOP-62 NSCLC): 14.6 µM
GI50 (SNB-75 CNS): 2230 nM
TGI (SNB-75 CNS): 13.4 µM
GI50 (U251 CNS): 3.23 µM
TGI (U251 CNS): 11.1 µM
GI50 (COLO 205 colon): 16.5 µM
TGI (COLO 205 colon): 30.9 µM
GI50 (NCI-H522 lung): 2520 nM
TGI (NCI-H522 lung): 7.84 µM
GI50 (UACC-257 melanoma): 3.41 µM
TGI (UACC-257 melanoma): 14.4 µM
GI50 (SK-MEL-2 melanoma): 2000 nM
TGI (SK-MEL-2 melanoma): 5.02 µM
GI50 (SF-295 CNS): 7.02 µM
TGI (SF-295 CNS): 20.5 µM
GI50 (M14 melanoma): 65.2 nM
TGI (M14 melanoma): 3.29 µM
GI50 (OVCAR-5 ovarian): 5.98 µM
TGI (OVCAR-5 ovarian): 21.4 µM
GI50 (HL-60(TB) leukemia): 4.66 µM
TGI (HL-60(TB) leukemia): 47.2 µM
GI50 (EKVX NSCLC): 2850 nM
TGI (EKVX NSCLC): 12.2 µM
GI50 (MOLT-4 leukemia): 2850 nM
TGI (MOLT-4 leukemia): 15 µM
GI50 (UO-31 renal): 3.45 µM
TGI (UO-31 renal): 14 µM
GI50 (SK-MEL-5 melanoma): 1960 nM
TGI (SK-MEL-5 melanoma): 4.04 µM
GI50 (UACC-62 melanoma): 2890 nM
TGI (UACC-62 melanoma): 10.4 µM
GI50 (OVCAR-3 ovarian): 3.22 µM
TGI (OVCAR-3 ovarian): 11 µM
GI50 (NCI-H226 lung): 2110 nM
TGI (NCI-H226 lung): 12.5 µM
GI50 (HCT-15 colon): 3.19 µM
TGI (HCT-15 colon): 12.4 µM
GI50 (HS 578T breast): 2600 nM
TGI (HS 578T breast): 8.26 µM
GI50 (KM12 colon): 3.86 µM
TGI (KM12 colon): 14.8 µM
GI50 (K-562 leukemia): 3.18 µM
TGI (K-562 leukemia): > 100 µM
GI50 (MDA-MB-435): 3.49 µM
TGI (MDA-MB-435): 12.6 µM
GI50 (A549 NSCLC): 3.53 µM
TGI (A549 NSCLC): 13.1 µM
GI50 (MCF7 breast): 2700 nM
TGI (MCF7 breast): 10.4 µM
GI50 (PC-3 prostate): 2040 nM
TGI (PC-3 prostate): 10.9 µM
GI50 (SK-OV-3 ovarian): 2300 nM
TGI (SK-OV-3 ovarian): 6.3 µM
GI50 (CAKI-1 renal): 2290 nM
TGI (CAKI-1 renal): 8.98 µM
GI50 (MDA-MB-468 breast): 2400 nM and 2820 nM
TGI (MDA-MB-468 breast): 6.08 µM and 7.81 µM
GI50 (MDA-MB-231 breast): 2350 nM
TGI (MDA-MB-231 breast): 6.97 µM
